# Columns and labels:
# [1] = biological target: Epidermal growth factor receptor (Homo sapiens, UniProt P00533); assay: Inhibition of EGFR (unknown origin)
# [2] = biological target: Vascular endothelial growth factor receptor 2 (Homo sapiens, UniProt P35968); assay: Inhibition of VEGFR2 (unknown origin)
# KB [3] = assay: Antiproliferative activity against human KB cells assessed as cell growth inhibition; type: functional, cell-based
# KB [4] = assay: Antiproliferative activity against vincristine-resistant human KB cells assessed as cell growth inhibition; type: functional, cell-based
# KB [5] = assay: Antiproliferative activity against etoposide-resistant human KB cells assessed as cell growth inhibition; type: functional, cell-based
# [6] = Antiproliferative activity against human U87 cells assessed as cell growth inhibition; type: functional, cell-based, U-87MG ATCC; details: U-87 MG
# [7] = Antiproliferative activity against human U87MG Human EGFR vIII cells assessed as cell growth inhibition; type: functional, cell-based
# A 172 = assay: Antiproliferative activity against human A-172 cells assessed as cell growth inhibition; type: functional, cell-based
# U-251 = assay: Antiproliferative activity against human U-251 cells assessed as cell growth inhibition; type: functional, cell-based
# A549 = assay: Antiproliferative activity against human A549 cells assessed as cell growth inhibition; type: functional, cell-based
# MCF7 = assay: Antiproliferative activity against human MCF7 cells assessed as cell growth inhibition; type: functional, cell-based
# MDA-MB-435 = assay: Antiproliferative activity against human MDA-MB-435 cells assessed as cell growth inhibition; type: functional
# [8] = Antiproliferative activity against human KB/VCR cells assessed as cell growth inhibition; type: functional, cell-based
# MES-SA/Dx5 = assay: Antiproliferative activity against human MES-SA/Dx5 cells assessed as cell growth inhibition; type: functional, cell-based
# HL60/MX2 = assay: Antiproliferative activity against human HL60/MX2 cells assessed as cell growth inhibition; type: functional, cell-based
# DLD-1 = assay: Antiproliferative activity against MTAs-resistant human DLD-1 cells overexpressing P-gp assessed as cell growth inhibition; type: functional, cell-based
# Chain of Vascular endothelial growth factor receptor 2 (P35968 whole entry): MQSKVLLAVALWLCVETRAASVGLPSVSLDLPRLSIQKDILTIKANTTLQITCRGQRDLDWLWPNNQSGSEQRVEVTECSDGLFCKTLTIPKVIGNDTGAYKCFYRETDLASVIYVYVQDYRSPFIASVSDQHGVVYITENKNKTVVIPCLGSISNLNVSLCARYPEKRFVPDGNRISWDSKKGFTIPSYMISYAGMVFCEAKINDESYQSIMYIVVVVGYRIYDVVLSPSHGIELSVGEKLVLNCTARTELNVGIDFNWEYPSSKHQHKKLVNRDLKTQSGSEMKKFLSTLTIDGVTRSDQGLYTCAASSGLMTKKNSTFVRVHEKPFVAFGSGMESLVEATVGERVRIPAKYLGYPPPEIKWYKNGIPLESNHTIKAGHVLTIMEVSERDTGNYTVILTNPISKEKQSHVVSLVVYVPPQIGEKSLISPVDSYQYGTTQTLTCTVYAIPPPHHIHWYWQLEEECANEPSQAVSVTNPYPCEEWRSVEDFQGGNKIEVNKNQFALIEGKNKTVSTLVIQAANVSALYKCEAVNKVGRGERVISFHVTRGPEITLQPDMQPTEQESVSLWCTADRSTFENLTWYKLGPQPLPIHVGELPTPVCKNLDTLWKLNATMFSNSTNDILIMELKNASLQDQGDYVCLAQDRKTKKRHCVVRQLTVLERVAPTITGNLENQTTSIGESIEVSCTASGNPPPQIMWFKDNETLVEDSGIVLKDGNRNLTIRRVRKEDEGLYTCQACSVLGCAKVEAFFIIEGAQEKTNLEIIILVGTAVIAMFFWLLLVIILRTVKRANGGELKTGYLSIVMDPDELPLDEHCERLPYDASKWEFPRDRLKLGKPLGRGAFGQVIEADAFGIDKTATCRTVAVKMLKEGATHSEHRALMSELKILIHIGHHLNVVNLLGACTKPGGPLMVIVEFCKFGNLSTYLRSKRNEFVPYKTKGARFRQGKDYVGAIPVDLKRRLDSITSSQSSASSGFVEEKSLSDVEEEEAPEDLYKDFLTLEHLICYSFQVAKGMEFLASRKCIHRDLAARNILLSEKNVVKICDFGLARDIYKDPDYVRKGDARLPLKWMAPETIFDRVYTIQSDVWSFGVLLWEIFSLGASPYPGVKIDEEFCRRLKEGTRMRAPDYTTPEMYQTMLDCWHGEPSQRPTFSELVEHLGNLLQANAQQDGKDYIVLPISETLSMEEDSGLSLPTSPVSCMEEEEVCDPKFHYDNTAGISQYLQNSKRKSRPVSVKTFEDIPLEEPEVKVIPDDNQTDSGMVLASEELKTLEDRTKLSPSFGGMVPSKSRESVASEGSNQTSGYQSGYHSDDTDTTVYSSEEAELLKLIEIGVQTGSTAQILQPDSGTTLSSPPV
# Chain of Epidermal growth factor receptor (P00533 whole entry): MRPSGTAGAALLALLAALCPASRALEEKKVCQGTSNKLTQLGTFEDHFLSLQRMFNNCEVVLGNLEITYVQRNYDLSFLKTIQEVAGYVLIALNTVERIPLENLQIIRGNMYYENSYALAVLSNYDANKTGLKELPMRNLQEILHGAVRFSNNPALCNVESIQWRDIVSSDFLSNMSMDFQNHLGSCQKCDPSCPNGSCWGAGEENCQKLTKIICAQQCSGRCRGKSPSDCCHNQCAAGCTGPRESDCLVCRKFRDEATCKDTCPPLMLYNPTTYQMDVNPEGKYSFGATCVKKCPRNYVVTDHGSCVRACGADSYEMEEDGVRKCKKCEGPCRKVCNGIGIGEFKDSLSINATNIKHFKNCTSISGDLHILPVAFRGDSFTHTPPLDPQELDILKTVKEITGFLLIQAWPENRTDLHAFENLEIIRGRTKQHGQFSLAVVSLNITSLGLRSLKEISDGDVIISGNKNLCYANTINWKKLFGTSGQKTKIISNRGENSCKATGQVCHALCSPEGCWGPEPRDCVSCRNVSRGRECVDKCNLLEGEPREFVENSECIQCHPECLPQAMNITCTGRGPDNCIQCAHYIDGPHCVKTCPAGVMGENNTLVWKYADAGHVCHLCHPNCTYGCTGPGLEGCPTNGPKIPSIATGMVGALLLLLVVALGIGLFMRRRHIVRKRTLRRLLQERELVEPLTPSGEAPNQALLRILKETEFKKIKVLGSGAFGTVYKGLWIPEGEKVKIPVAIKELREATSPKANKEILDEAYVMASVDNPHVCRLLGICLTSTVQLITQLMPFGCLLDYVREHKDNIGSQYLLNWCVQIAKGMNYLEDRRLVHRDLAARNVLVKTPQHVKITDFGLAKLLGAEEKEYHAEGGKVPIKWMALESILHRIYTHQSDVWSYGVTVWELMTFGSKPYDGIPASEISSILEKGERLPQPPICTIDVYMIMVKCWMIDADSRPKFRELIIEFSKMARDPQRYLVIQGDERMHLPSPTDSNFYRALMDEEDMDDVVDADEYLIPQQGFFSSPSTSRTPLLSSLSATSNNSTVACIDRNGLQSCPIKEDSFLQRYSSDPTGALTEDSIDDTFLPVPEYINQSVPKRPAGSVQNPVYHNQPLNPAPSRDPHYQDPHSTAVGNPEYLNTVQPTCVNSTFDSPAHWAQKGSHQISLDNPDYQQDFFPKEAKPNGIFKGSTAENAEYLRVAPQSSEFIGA
compound,measurement,setting,value
COc1ccc(-c2cc(=O)oc3c(O)c(O)ccc23)cc1O,IC50,[1],4900 nM
same,IC50,[2],5500 nM
COc1ccc(S(=O)(=O)Nc2ccccc2NCc2ccc(C(=O)Nc3ccccc3N)cc2)cc1,IC50,KB [3],12 nM
same,IC50,KB [4],12 nM
same,IC50,KB [5],22 nM
O=C(CCCc1ccc(-c2ccccc2F)cc1)Nc1ccc(O)cc1,EC50,[6],600 nM
same,EC50,[7],600 nM
same,EC50,A 172,600 nM
same,EC50,U-251,600 nM
COC(=O)NCCc1c(C(=O)c2cc(C(F)(F)F)cc(C(F)(F)F)c2)[nH]c2ccccc12,IC50,A549,2010 nM
same,IC50,MCF7,1300 nM
COc1ccn2c(C(C)=O)cc(C(=O)c3ccc4c(c3)Sc3ccccc3N4)c2c1,GI50,MDA-MB-435,19 nM
COc1ccc(O)c(C(=O)c2cnc3[nH]c4ccccc4c3c2)c1,IC50,[8],400 nM
same,IC50,MES-SA/Dx5,160 nM
same,IC50,HL60/MX2,320 nM
CCCCC(C#CC(=O)OC)O/C=C/C(=O)OC (stereo unspecified),IC50,DLD-1,450 nM
